pIC50: −log10 of the molar value.
Columns and labels:
RET = RET (Homo sapiens, UniProt P07949); settings: high concentration (1,000 nM); Cancer Cell 19(5) 679-690, 2011; cited from earlier work
[1] = tested on: cell lines expressing KIF5B-RET; settings: J Clin Oncol 30, 2012, suppl; Abstract no: 7510; cited from earlier work
[2] = tested on: LC-2/ad-implanted mouse models; assay: Antitumor activity in xenograft mouse model harboring CCDC6-RET fusion gene; format: in vivo; settings: SCID mice, oral once a day 20 mg/kg or 60 mg/kg for 14 days
From the text: LC-2/ad was subcutaneously implanted to SCID mice and randomized after tumor size reached 200 to 350 mm^3. The administration of the compound was started on the day of randomization. The vehicles used for dissolving the compound were 0.02 N HCl, 10% dimethyl sulfoxide. 10% Cremophor EL, 15% PEG400 and 15% HPCD (2-hydroxypropyl-β-cyclodextrin) (indicated by final concentration).

Ba/F3 KIF5B-RET cells = assay: Cell growth inhibitory activity against KIF5B-RET-expressing Ba/F3 cells (CellTiter-Glo); format: cell-based; settings: Mus musculus, BaF3, 48 h; read-out: cell growth inhibition IC50 value, Ba/F3 KIF5B-RET cells
Procedure: An expression plasmid CS-GS104J-M67 (GeneCopoeia) containing KIF5B-RET variant 1 (gene in which a region from the N-terminus of KIF5B CDS to exon 15 was fused with a region from exon 12 of RET CDS to the C-terminus) (SEQ ID NO: 5) was transfected into mouse lymphocytes Ba/F3 (RIK FN Cell Bank) by electroporation. After transfection, the cells were cultured overnight in an RPMI-1640 medium (Sigma-Aldrich) containing 10% FBS (Bovogen Biologicals) and 1 ng/mL recombinant mouse IL-3 (R&D systems). Then, the culture supernatant was replaced with an RPMl-1640 medium containing 10% LBS. The cells were seeded into a 96-well plate by the limiting dilution method. Approximately 2 weeks later, the expression of phosphorylated RET in cells grown in the absence of IL-3 was detected by Western blotting. […]
The Ba/F3 KIF5B-RET cells were seeded into a 96-well plate at a concentration of 2,500 cells/well in an RPMI-1640 medium containing 10% FBS. […] After culture at 37° C. for 2 days in the presence of 5% CO2, a cell counting reagent CellTiter-Glo® Luminescent Cell Viability Assay (Pronged Corporation) was added thereto and stirred, followed by the measurement of luminescence intensity using a luminescence measurement apparatus Envision (PerkinElmer). […] The IC50 value was determined from the obtained values by the logistic regression method.

[3] = tested on: LC-2/ad cells (CCDC6-RET fusion gene); assay: Cell growth inhibitory activity against non-small cell lung cancer cell line LC-2/ad (CellTiter-Glo); format: cell-based; settings: Homo sapiens, 120 h, read-out: cell growth inhibition IC50 value, LC-2/ad cells
Procedure: Cell growth inhibitory activity was evaluated using a non-small cell lung cancer cell line LC-tad (R1KEN, J Thorac Oncol. 2012 December, 7 (12), 1872-6) harboring CCDC6-RET fusion gene.
The LC-2/ad cells were seeded into a 96-well plate at a concentration of 2,000 cells/well in a medium of a 1:1 mixture of RPMI-1640 and Ham containing 15% FBS and 25 mM HEPES and cultured overnight at 37° C. in the presence of 5% CO2. […] Dimethyl sulfoxide was added as a negative control. After culture at 37° C. for 5 days in the presence of 5% CO2, a cell counting reagent CellTiter-Glo® Luminescent Cell Viability Assay was added thereto and stirred, followed by the measurement of luminescence intensity using a luminescence measurement apparatus Envision. The measurement value in a well supplemented with only a medium was defined as a cell viability of 0%, while the measurement value in a well supplemented with dimethyl sulfoxide was defined as a cell viability of 100%. […] The IC50 value was determined from the obtained values by the logistic regression method.

TT cells (RET C634W) = assay: Cell growth inhibitory activity against thyroid medullary cancer cell line TT (CellTiter-Glo); format: cell-based; settings: Homo sapiens, 120 h, read-out: cell growth inhibition IC50 value, TT cells
Procedure: Cell growth inhibitory activity was evaluated using a thyroid medullary cancer cell line TT (American Type Culture Collection) with a RET kinase active mutation (C634W).
The TT cells were seeded into a 96-well plate at a concentration of 5,000 cells/well in F-12K Nutrient Mixture (Life Technologies Corporation) containing 10% FBS and cultured overnight at 37° C. in the presence of 5% CO2. […] Dimethyl sulfoxide was added as a negative control. After culture at 37° C. for 5 days in the presence of 5% CO2. a cell counting reagent CellTiter-Glo® Luminescent Cell Viability Assay was added thereto and stirred, followed by the measurement of luminescence intensity using a luminescence measurement apparatus Envision. The measurement value in a well supplemented with only a medium was defined as a cell viability of 0%, while the measurement value in a well supplemented with dimethyl sulfoxide was defined as a survival rate of 100%. […] The IC50 value was determined from the obtained values by the logistic regression method.

[4] = tested on: KIF5B-RET-expressing cells; settings: Nature Medicine 2012, 18, p. 378-381; cited from earlier work

Sequence of RET (P07949 29-1114): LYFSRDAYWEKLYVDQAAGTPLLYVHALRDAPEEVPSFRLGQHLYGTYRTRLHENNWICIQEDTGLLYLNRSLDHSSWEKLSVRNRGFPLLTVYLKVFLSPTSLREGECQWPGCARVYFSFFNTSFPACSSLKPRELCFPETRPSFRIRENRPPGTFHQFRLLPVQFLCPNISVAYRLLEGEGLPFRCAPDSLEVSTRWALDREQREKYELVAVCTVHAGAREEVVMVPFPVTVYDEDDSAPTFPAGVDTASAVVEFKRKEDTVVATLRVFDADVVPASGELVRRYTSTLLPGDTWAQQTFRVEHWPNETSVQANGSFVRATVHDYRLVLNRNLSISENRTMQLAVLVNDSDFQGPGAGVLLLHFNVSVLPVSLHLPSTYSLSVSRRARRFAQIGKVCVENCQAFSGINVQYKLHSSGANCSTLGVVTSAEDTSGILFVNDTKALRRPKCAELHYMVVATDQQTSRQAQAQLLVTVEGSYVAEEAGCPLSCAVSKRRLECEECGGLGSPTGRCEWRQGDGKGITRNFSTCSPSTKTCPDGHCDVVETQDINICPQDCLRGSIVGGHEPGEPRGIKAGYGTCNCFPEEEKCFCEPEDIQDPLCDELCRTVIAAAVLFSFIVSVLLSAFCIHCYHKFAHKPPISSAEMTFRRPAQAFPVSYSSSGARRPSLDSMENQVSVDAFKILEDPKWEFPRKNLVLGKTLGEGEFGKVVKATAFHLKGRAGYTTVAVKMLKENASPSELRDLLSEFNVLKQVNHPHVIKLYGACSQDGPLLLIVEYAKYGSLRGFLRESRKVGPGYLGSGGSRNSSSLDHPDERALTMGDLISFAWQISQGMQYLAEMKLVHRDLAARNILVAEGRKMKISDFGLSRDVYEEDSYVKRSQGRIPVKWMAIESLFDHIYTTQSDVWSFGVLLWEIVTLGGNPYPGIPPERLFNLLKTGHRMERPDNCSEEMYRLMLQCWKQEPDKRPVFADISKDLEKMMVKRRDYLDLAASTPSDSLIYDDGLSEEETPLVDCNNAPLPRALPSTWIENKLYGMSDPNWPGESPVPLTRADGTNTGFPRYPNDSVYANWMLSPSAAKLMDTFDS

CCc1cc2c(cc1N1CCC(N3CCOCC3)CC1)C(C)(C)c1[nH]c3cc(C#N)ccc3c1C2=O [drawing 3]
kinase inhibition in Ambit Kinase Screening test (RET): inhibits many kinases including RET

COc1cc2nccc(Oc3ccc(NC(=O)C4(C(=O)Nc5ccc(F)cc5)CC4)cc3)c2cc1OC [XL184]
cell growth inhibitory effect against cell lines expressing KIF5B-RET [1]: cell growth inhibitory effect

CNC(=O)c1cc(Oc2ccc(NC(=O)Nc3ccc(Cl)c(C(F)(F)F)c3)cc2)ccn1 [sorafenih]
cell growth inhibitory effect against cell lines expressing KIF5B-RET [1]: cell growth inhibitory effect

CCc1cc2c(cc1N1CCC(N3CCOCC3)CC1)C(C)(C)c1[nH]c3cc(C#N)ccc3c1C2=O [compound 1, 9-ethyl-6,6-dimethyl-8-(4-morpholin-4-yl-piperidin-1-yl)-11-oxo-6,11-dihydro-5H-benzo[b]carbazole-3-carbonitrile]
antitumor activity (tumor growth) ([2]; LC-2/ad subcutaneous): dose-dependent tumor growth inhibitory effect and tumor regression | body weight loss [2]: significant body weight loss of a mouse was not observed | pIC50 (Ba/F3 KIF5B-RET cells): 7.07 | pIC50 [3]: 6.72 | pIC50 (TT cells (RET C634W)): 6.72

C[C@@H](Oc1cc(-c2cnn(C3CCNCC3)c2)cnc1N)c1c(Cl)ccc(F)c1Cl [crizotinih]
cell growth inhibitory activity against KIF5B-RET-expressing cells [4]: no cell growth inhibitory activity

Reference: US11633402B2, “RET inhibitor” (CHUGAI SEIYAKU KABUSHIKI KAISHA, priority 2012, dated 2023)
